pKd: −log10 of the molar value. Read-outs that look alike come from different tables or passages of the source. Values belong to the molecule of their own block, whether it stands above or below them.
Assays:
eIF2Bα (cteIF2Bα) [1] = assay: ITC; type: binding, Thermochaetoides thermophila
eIF2Bα (cteIF2Bα) [2] = assay: ITC; type: binding, Thermochaetoides thermophila; remark: listed apart in the source
eIF2Bα (cteIF2Bα) [3] = assay: ITC; type: binding, Thermochaetoides thermophila; remark: listed apart in the source
[4] = target: Chaetomium thermophilum eIF2Bα (Chaetomium thermophilum); assay: SEC-MALS
[5] = target: eIF2B(βδ)2 complex (Chaetomium thermophilum, untagged full-length subunits) (Chaetomium thermophilum); assay: SEC-MALS

- pKd (eIF2Bα (cteIF2Bα) [1]): 5.54
Molecule: Nc1nc2c(ncn2[C@@H]2O[C@H](COP(=O)(O)O)[C@@H](O)[C@H]2O)c(=O)[nH]1 [GMP]

- pKd (eIF2Bα (cteIF2Bα) [2]): 4.19
Molecule: Nc1ccn([C@@H]2O[C@H](COP(=O)(O)O)[C@@H](O)[C@H]2O)c(=O)n1 [CMP]

- pKd (eIF2Bα (cteIF2Bα) [3]): 5.00
Molecule: Nc1ncnc2c1ncn2[C@@H]1O[C@H](COP(=O)(O)O)[C@@H](O)[C@H]1O [AMP]

- stoichiometry N [4]: 2
- stoichiometry N [5]: 1
Molecule: Chaetomium thermophilum eIF2Bα (natural protein)

Reference: paper PMC4787765 (Nucleic Acids Research, 2015)
